# Reference: US12371454B2, “Cyclic peptide compound having Kras inhibitory action” (priority 2019, dated 2025)
# Starred links: 1 amine or outer side, 2 acyl side, 3 side chain; linkers in the order of their positions; H or OH if unused. Positions of bridges follow the written chain, without caps; N, C: chain ends. Non-standard residues stand in square brackets, D forms with d. Residues, ends and D or L forms follow the SMILES beside them. *: point of attachment. hPhe(3-Cl-4-CF3) = N[C@@H](CCc1ccc(C(F)(F)F)c(Cl)c1)C(=O)O; NEtAsp = CCN([C@@H](CC(=O)[*:3])C(=O)[*:2])[*:1]; NMePhe(4-Me) = CN[C@@H](Cc1ccc(C)cc1)C(=O)O; X6 = CCN([C@@H](CC1CCCCC1)C(=O)[*:2])[*:1]; NMedβ3hAla = C[C@H](CC(=O)[*:2])N(C)[*:1]; NMePhe(2-F) = CN[C@@H](Cc1ccccc1F)C(=O)O; hPhe(4-F) = N[C@@H](CCc1ccc(F)cc1)C(=O)O; NMeGly(cPent) = CN[C@H](C(=O)O)C1CCCC1; Phe(3-I) = N[C@@H](Cc1cccc(I)c1)C(=O)O; NMeAla(cPr) = CN[C@@H](CC1CC1)C(=O)O; Phe(2-Me) = Cc1ccccc1C[C@H](N)C(=O)O; NMeGly(cBu) = CN[C@H](C(=O)O)C1CCC1; NMeCha = CN[C@@H](CC1CCCCC1)C(=O)O; NMeChg = CN[C@H](C(=O)O)C1CCCCC1; NMeI = CC[C@H](C)[C@H](NC)C(=O)O; NMeD = CN[C@@H](CC(=O)O)C(=O)O; NMeL = CN[C@@H](CC(C)C)C(=O)O; Chg = N[C@H](C(=O)O)C1CCCCC1; NMePra = C#CC[C@H](NC)C(=O)O; NMeNva = CCC[C@H](NC)C(=O)O; NMeV = CN[C@H](C(=O)O)C(C)C; Ac6c = NC1(C(=O)O)CCCCC1; Iva = CC[C@](C)(N)C(=O)O; NMeA = CN[C@@H](C)C(=O)O; NMeAib = CNC(C)(C)C(=O)O; Piperidide = C1CCN(*)CC1; Ac5c = NC1(C(=O)O)CCCC1; Aze = O=C(O)[C@@H]1CCN1; Sar = CNCC(=O)O
# Experiments:
# [1] = system: Human pancreatic cancer cell line AsPC-1; assay: Measurement of AsPC-1 cell growth inhibition (AsPC-1 CGI); type: cell-based; settings: 96 h
# Method in brief: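 AsPC-1 cells in 15% FBS RPMI-1640 were exposed to test compound for 96 hours at 37° C, with CellTiter-Glo as endpoint.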
# [2] = target: T1, Kras and SOS1 (biotin-tagged human Kras loaded with GDP, His-tagged human SOS1) (Homo sapiens, UniProt P01116, G12D); assay: Protein-protein interaction inhibition between Kras and SOS1 (KrasGl2D-SOS PPI) using AlphaScreen; type: binding; settings: AlphaScreen; biotin-tagged human Kras loaded with GDP, His-tagged human SOS1; read-out: KRAS G12D-SOS PPI IC50
# T1 construct: made in house; host or cells: E. coli (stated for Kras only)
# T1 sequence (P01116 1-188 isoform P01116-2 G12D): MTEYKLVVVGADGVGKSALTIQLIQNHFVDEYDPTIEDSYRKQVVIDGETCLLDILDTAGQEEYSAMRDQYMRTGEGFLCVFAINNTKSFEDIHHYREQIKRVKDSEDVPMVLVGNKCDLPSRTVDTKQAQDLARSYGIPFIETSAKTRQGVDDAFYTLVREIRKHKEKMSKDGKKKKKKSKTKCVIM
# Method in brief: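 Binding between SOS1 and Kras is detected as bead-proximity luminescence: illuminate Ni-conjugated donors (680 nm), collect 520-620 nm emission from streptavidin-conjugated acceptors; Kras carries biotin and GDP loaded after purification, SOS1 carries a His tag.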
Structure (SMILES),IC50 [1] [nM],IC50 [2] [nM]
CC[C@H](C)[C@@H]1NC(=O)[C@H](CC(C)C)N(C)C(=O)C[C@@H](C(=O)N2CCCCC2)N(C)C(=O)[C@H](C(C)C)N(C)C(=O)C2(CCCC2)NC(=O)[C@@H]2CCCN2C(=O)[C@H](CCc2ccc(C(F)(F)F)c(Cl)c2)NC(=O)CN(C)C(=O)[C@H](C2CCCCC2)N(C)C(=O)[C@@H]2CCN2C(=O)[C@H](C)N(C)C1=O [Compound 526] ([NMeL]I[NMeA][Aze][NMeChg][Sar][hPhe(3-Cl-4-CF3)]P[Ac5c][NMeV][NMeD]-Piperidide; lactam N-11),100 to 500,6.6
CC[C@H](C)[C@@H]1NC(=O)[C@H](C)N(C)C(=O)C[C@@H](C(=O)N2CCCCC2)N(CC)C(=O)[C@H](C2CCCC2)N(C)C(=O)C2(CCCC2)NC(=O)[C@@H]2CCCN2C(=O)[C@H](CCc2ccc(C(F)(F)F)c(Cl)c2)NC(=O)CN(C)C(=O)[C@H](CC2CCCCC2)N(C)C(=O)CN(C)C(=O)CN(C)C1=O [Compound 532] ([NMeA]I[Sar][Sar][NMeCha][Sar][hPhe(3-Cl-4-CF3)]P[Ac5c][NMeGly(cPent)][NEtAsp]-Piperidide; lactam N-11),50 to 100,0.48
CO[C@H](C)[C@@H]1NC(=O)[C@H](CC(C)C)N(C)C(=O)C[C@@H](C(=O)N2CCCCC2)N(C)C(=O)[C@H](C2CCCCC2)N(C)C(=O)C2(CCCC2)NC(=O)[C@@H]2CCCN2C(=O)[C@H](CCc2ccc(C(F)(F)F)c(Cl)c2)NC(=O)CN(C)C(=O)[C@H](CC2CCCCC2)N(C)C(=O)CN(C)C(=O)CN(C)C1=O [Compound 535] ([NMeL]T(Me)[Sar][Sar][NMeCha][Sar][hPhe(3-Cl-4-CF3)]P[Ac5c][NMeChg][NMeD]-Piperidide; lactam N-11),50 to 100,0.65
CC[C@H](C)[C@@H]1NC(=O)[C@H](CC(C)C)N(C)C(=O)C[C@@H](C(=O)N2CCCCC2)N(C)C(=O)[C@H](C2CCCCC2)N(C)C(=O)C2(CCCC2)NC(=O)[C@@H]2CCCN2C(=O)[C@H](CCc2ccc(C(F)(F)F)c(Cl)c2)NC(=O)CN(C)C(=O)[C@H](CC2CCCCC2)N(CC)C(=O)CN(C)C(=O)CN(C)C1=O [Compound 543] ([NMeL]I[Sar][Sar][X6][Sar][hPhe(3-Cl-4-CF3)]P[Ac5c][NMeChg][NMeD]-Piperidide; lactam N-11),50 to 100,0.56
CCC[C@H]1C(=O)N(C)[C@H](C(=O)N2CCCCC2)CC(=O)N(C)[C@@H](CC(C)C)C(=O)N[C@@H]([C@@H](C)CC)C(=O)N(C)CC(=O)N(C)CC(=O)N(C)[C@@H](CC2CCCCC2)C(=O)N(C)CC(=O)N[C@@H](CCc2ccc(C(F)(F)F)c(Cl)c2)C(=O)N2CCC[C@H]2C(=O)NC2(CCCC2)C(=O)N1C [Compound 548] ([NMeL]I[Sar][Sar][NMeCha][Sar][hPhe(3-Cl-4-CF3)]P[Ac5c][NMeNva][NMeD]-Piperidide; lactam N-11),100 to 500,1.6
C#CC[C@H]1C(=O)N[C@@H]([C@@H](C)CC)C(=O)N(C)CC(=O)N(C)CC(=O)N(C)[C@@H](CC2CCCCC2)C(=O)N(C)CC(=O)N[C@@H](CCc2ccc(C(F)(F)F)c(Cl)c2)C(=O)N2CCC[C@H]2C(=O)NC2(CCCC2)C(=O)N(C)[C@@H](C2CCCCC2)C(=O)N(C)[C@H](C(=O)N2CCCCC2)CC(=O)N1C [Compound 551] ([NMePra]I[Sar][Sar][NMeCha][Sar][hPhe(3-Cl-4-CF3)]P[Ac5c][NMeChg][NMeD]-Piperidide; lactam N-11),50 to 100,0.52
CC(C)C[C@H]1C(=O)N[C@@H](C2CCCCC2)C(=O)N(C)CC(=O)N(C)CC(=O)N(C)[C@@H](CC2CCCCC2)C(=O)N(C)CC(=O)N[C@@H](CCc2ccc(C(F)(F)F)c(Cl)c2)C(=O)N2CCC[C@H]2C(=O)NC2(CCCC2)C(=O)N(C)[C@@H](C2CCCCC2)C(=O)N(C)[C@H](C(=O)N2CCCCC2)CC(=O)N1C [Compound 552] ([NMeL][Chg][Sar][Sar][NMeCha][Sar][hPhe(3-Cl-4-CF3)]P[Ac5c][NMeChg][NMeD]-Piperidide; lactam N-11),100 to 500,0.63
CC[C@H](C)[C@@H]1NC(=O)[C@H](CC2CC2)N(C)C(=O)C[C@@H](C(=O)N2CCCCC2)N(C)C(=O)[C@H](C(C)C)N(C)C(=O)C2(CCCC2)NC(=O)[C@@H]2CCCN2C(=O)[C@H](CCc2ccc(C(F)(F)F)c(Cl)c2)NC(=O)CN(C)C(=O)[C@H](CC2CCCCC2)N(C)C(=O)CN(C)C(=O)CN(C)C1=O [Compound 561] ([NMeAla(cPr)]I[Sar][Sar][NMeCha][Sar][hPhe(3-Cl-4-CF3)]P[Ac5c][NMeV][NMeD]-Piperidide; lactam N-11),100 to 500,3.4
CC[C@H](C)[C@@H]1NC(=O)[C@H](C2CCC2)N(C)C(=O)C[C@@H](C(=O)N2CCCCC2)N(C)C(=O)[C@H](C2CCCCC2)N(C)C(=O)C2(CCCC2)NC(=O)[C@@H]2CCCN2C(=O)[C@H](CCc2ccc(C(F)(F)F)c(Cl)c2)NC(=O)CN(C)C(=O)[C@H](CC2CCCCC2)N(C)C(=O)CN(C)C(=O)CN(C)C1=O [Compound 562] ([NMeGly(cBu)]I[Sar][Sar][NMeCha][Sar][hPhe(3-Cl-4-CF3)]P[Ac5c][NMeChg][NMeD]-Piperidide; lactam N-11),50 to 100,0.56
CC[C@H](C)[C@@H]1NC(=O)[C@H](CC(C)C)N(C)C(=O)C[C@@H](C(=O)N(C)C)N(C)C(=O)[C@H](C2CCCC2)N(C)C(=O)C2(CCCC2)NC(=O)[C@H](C)NC(=O)[C@H](CCc2ccc(C(F)(F)F)c(Cl)c2)NC(=O)CN(C)C(=O)[C@H](CC2CCCCC2)N(C)C(=O)[C@@H]2CCN2C(=O)[C@H](C)N(C)C1=O [Compound 575] ([NMeL]I[NMeA][Aze][NMeCha][Sar][hPhe(3-Cl-4-CF3)]A[Ac5c][NMeGly(cPent)][NMeD]-NMe2; lactam N-11),100 to 500,0.56
CC[C@H](C)[C@@H]1NC(=O)[C@H](CC(C)C)N(C)C(=O)C[C@@H](C(=O)N2CCCCC2)N(C)C(=O)[C@H](CC(C)C)NC(=O)C(C)(C)N(C)C(=O)[C@H](Cc2ccccc2C)NC(=O)[C@H](Cc2cccc(I)c2)NC(=O)CN(C)C(=O)[C@H](Cc2ccc(C)cc2)N(C)C(=O)CN(C)C(=O)CN(C)C1=O [Compound 596] ([NMeL]I[Sar][Sar][NMePhe(4-Me)][Sar][Phe(3-I)][Phe(2-Me)][NMeAib]L[NMeD]-Piperidide; lactam N-11),> 500,34
CC[C@H](C)[C@@H]1NC(=O)[C@H](CC(C)C)N(C)C(=O)C[C@@H](C(=O)N2CCCCC2)N(C)C(=O)[C@H](C(C)C)N(C)C(=O)C2(CCCCC2)NC(=O)[C@@H]2CCCN2C(=O)[C@H](CCc2ccc(C(F)(F)F)c(Cl)c2)NC(=O)CN(C)C(=O)[C@H](CC2CCCCC2)N(C)C(=O)CN(C)C(=O)CN(C)C1=O [Compound 600] ([NMeL]I[Sar][Sar][NMeCha][Sar][hPhe(3-Cl-4-CF3)]P[Ac6c][NMeV][NMeD]-Piperidide; lactam N-11),100 to 500,4.5
CC[C@H](C)[C@@H]1NC(=O)[C@H](CC(C)C)N(C)C(=O)C[C@@H](C)N(C)C(=O)[C@H](C(C)C)N(C)C(=O)C2(CCCC2)NC(=O)[C@@H]2CCCN2C(=O)[C@H](CCc2ccc(C(F)(F)F)c(Cl)c2)NC(=O)CN(C)C(=O)[C@H](CC2CCCCC2)N(C)C(=O)CN(C)C(=O)CN(C)C1=O [Compound 608] (cyclo([Ac5c][NMeV][NMedβ3hAla][NMeL]I[Sar][Sar][NMeCha][Sar][hPhe(3-Cl-4-CF3)]P)),50 to 100,5.9
CC[C@H](C)[C@@H]1NC(=O)[C@H](CC(C)C)N(C)C(=O)C[C@@H](C(=O)N(C)C)N(C)C(=O)[C@H]([C@@H](C)CC)N(C)C(=O)C2(CCCC2)NC(=O)[C@H](Cc2ccccc2F)N(C)C(=O)[C@H](CCc2ccc(C(F)(F)F)c(Cl)c2)NC(=O)CN(C)C(=O)[C@H](Cc2ccc(C)cc2)N(C)C(=O)[C@@H]2CCN2C(=O)[C@H](C)N(C)C1=O [Compound 616] ([NMeL]I[NMeA][Aze][NMePhe(4-Me)][Sar][hPhe(3-Cl-4-CF3)][NMePhe(2-F)][Ac5c][NMeI][NMeD]-NMe2; lactam N-11),50 to 100,3.9
CC[C@H](C)[C@@H]1NC(=O)[C@H](C)N(C)C(=O)C[C@@H](C(=O)N2CCCCC2)N(C)C(=O)[C@H](C2CCCCC2)N(C)C(=O)C2(CCCC2)NC(=O)[C@@H]2CCCN2C(=O)[C@H](CCc2ccc(F)cc2)NC(=O)CN(C)C(=O)[C@H](CC2CCCCC2)N(C)C(=O)CN(C)C(=O)CN(C)C1=O [Compound 618] ([NMeA]I[Sar][Sar][NMeCha][Sar][hPhe(4-F)]P[Ac5c][NMeChg][NMeD]-Piperidide; lactam N-11),100 to 500,2.4
CC[C@H](C)[C@@H]1NC(=O)[C@H](CC(C)C)N(C)C(=O)C[C@@H](C(=O)N2CCCCC2)N(C)C(=O)[C@H](C(C)C)N(C)C(=O)[C@](C)(CC)NC(=O)[C@@H]2CCCN2C(=O)[C@H](CCc2ccc(C(F)(F)F)c(Cl)c2)NC(=O)CN(C)C(=O)[C@H](CC2CCCCC2)N(C)C(=O)CN(C)C(=O)CN(C)C1=O [Compound 620] ([NMeL]I[Sar][Sar][NMeCha][Sar][hPhe(3-Cl-4-CF3)]P[Iva][NMeV][NMeD]-Piperidide; lactam N-11),100 to 500,11
CC[C@H](C)[C@@H]1NC(=O)[C@H](CC(C)C)N(C)C(=O)C[C@@H](C)N(C)C(=O)[C@H](C2CCCCC2)N(C)C(=O)C2(CCCC2)NC(=O)[C@@H]2CCCN2C(=O)[C@H](CCc2ccc(C(F)(F)F)c(Cl)c2)NC(=O)CN(C)C(=O)[C@H](CC2CCCCC2)N(C)C(=O)CN(C)C(=O)CN(C)C1=O [Compound 629] (cyclo([Ac5c][NMeChg][NMedβ3hAla][NMeL]I[Sar][Sar][NMeCha][Sar][hPhe(3-Cl-4-CF3)]P)),100 to 500,10
